The supplement of paper PMC10307832

Columns and labels:
Assay in all cases: relative viability (nuclei count vs DMSO), 5 days (fraction); higher = more cells survive
Decitabine + Lapatinib = compound: Nc1ncn([C@H]2C[C@H](O)[C@@H](CO)O2)c(=O)n1 [Decitabine] + CS(=O)(=O)CCNCc1ccc(-c2ccc3ncnc(Nc4ccc(OCc5cccc(F)c5)c(Cl)c4)c3c2)o1 [Lapatinib] (partner 2 µM)
Summary of the method: (§1)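 Lung cancer cell lines were pin-tool dosed in 1536-well plates on the day after seeding, with either a lone drug or a fixed anchor-drug dose plus five library-drug doses (not always all listed) in √10 steps. Nuclei were counted on 4× images after 5 days. Relative viability is the ratio of treated-well to vehicle-well nuclei counts, with each value a median of duplicate plates.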

[1] = compound: O=C(C[C@H]1NCCC[C@@H]1O)Cn1cnc2cc(Br)c(Cl)cc2c1=O (racemic) [Halofuginone] + CC(=O)c1c(C)c2cnc(Nc3ccc(N4CCNCC4)cn3)nc2n(C2CCCC2)c1=O [Palbociclib] (partner 0.5 µM)
Summary of the method: as §1

Cediranib + Trametinib = compound: COc1cc2c(Oc3ccc4[nH]c(C)cc4c3F)ncnc2cc1OCCCN1CCCC1 [Cediranib] + CC(=O)Nc1cccc(-n2c(=O)n(C3CC3)c(=O)c3c(Nc4ccc(I)cc4F)n(C)c(=O)c(C)c32)c1 [Trametinib] (partner 0.02 µM)
Summary of the method: as §1

[2] = compound: O=C(C[C@H]1NCCC[C@@H]1O)Cn1cnc2cc(Br)c(Cl)cc2c1=O (racemic) [Halofuginone] + C[C@]1(O)C[C@@H](c2nc(-c3ccc4ccc(-c5ccccc5)nc4c3)c3c(N)nccn32)C1 [Linsitinib] (partner 1 µM)
Summary of the method: as §1

NCI-H3122
relative viability (Decitabine + Lapatinib; first compound 0.04 µM): 1.05
relative viability (Decitabine + Lapatinib; first compound 0.1265 µM): 1.03
relative viability (Decitabine + Lapatinib; first compound 0.4 µM): 1.02
relative viability (Decitabine + Lapatinib; first compound 1.265 µM): 0.816
relative viability (Decitabine + Lapatinib; first compound 4 µM): 0.783
relative viability ([1]; first compound 0.001 µM): 0.186
relative viability ([1]; first compound 0.003162 µM): 0.155
relative viability ([1]; first compound 0.01 µM): 0.162
relative viability ([1]; first compound 0.03162 µM): 0.186
relative viability ([1]; first compound 0.1 µM): 0.19
relative viability (Cediranib + Trametinib; first compound 0.04 µM): 0.226
relative viability (Cediranib + Trametinib; first compound 0.4 µM): 0.218
relative viability (Cediranib + Trametinib; first compound 1.265 µM): 0.242
relative viability (Cediranib + Trametinib; first compound 4 µM): 0.282
relative viability ([2]; first compound 0.001 µM): 1.01
relative viability ([2]; first compound 0.003162 µM): 1.04
relative viability ([2]; first compound 0.01 µM): 0.993
relative viability ([2]; first compound 0.03162 µM): 0.952
relative viability ([2]; first compound 0.1 µM): 0.968

PC-3 [JPC-3]
relative viability (Decitabine + Lapatinib; first compound 0.1265 µM): 0.467
relative viability (Decitabine + Lapatinib; first compound 0.4 µM): 0.269
relative viability (Decitabine + Lapatinib; first compound 1.265 µM): 0.421
relative viability (Decitabine + Lapatinib; first compound 4 µM): 0.383
relative viability ([1]; first compound 0.001 µM): 0.595
relative viability ([1]; first compound 0.003162 µM): 0.511
relative viability ([1]; first compound 0.01 µM): 0.529
relative viability ([1]; first compound 0.03162 µM): 0.516
relative viability ([1]; first compound 0.1 µM): 0.493
relative viability (Cediranib + Trametinib; first compound 0.04 µM): 0.69
relative viability (Cediranib + Trametinib; first compound 0.4 µM): 0.681
relative viability (Cediranib + Trametinib; first compound 1.265 µM): 0.708
relative viability (Cediranib + Trametinib; first compound 4 µM): 0.662
relative viability ([2]; first compound 0.001 µM): 0.981
relative viability ([2]; first compound 0.003162 µM): 0.987
relative viability ([2]; first compound 0.01 µM): 0.911
relative viability ([2]; first compound 0.03162 µM): 1.01
relative viability ([2]; first compound 0.1 µM): 0.941

PC-14
relative viability (Decitabine + Lapatinib; first compound 0.1265 µM): 0.297
relative viability (Decitabine + Lapatinib; first compound 0.4 µM): 0.196
relative viability (Decitabine + Lapatinib; first compound 1.265 µM): 0.226
relative viability (Decitabine + Lapatinib; first compound 4 µM): 0.228
relative viability ([1]; first compound 0.001 µM): 0.509
relative viability ([1]; first compound 0.003162 µM): 0.597
relative viability ([1]; first compound 0.01 µM): 0.514
relative viability ([1]; first compound 0.03162 µM): 0.17
relative viability ([1]; first compound 0.1 µM): 0.0426
relative viability (Cediranib + Trametinib; first compound 0.04 µM): 0.862
relative viability (Cediranib + Trametinib; first compound 0.1265 µM): 0.664
relative viability (Cediranib + Trametinib; first compound 0.4 µM): 0.66
relative viability (Cediranib + Trametinib; first compound 1.265 µM): 0.582
relative viability (Cediranib + Trametinib; first compound 4 µM): 0.519
relative viability ([2]; first compound 0.001 µM): 1.09
relative viability ([2]; first compound 0.003162 µM): 0.97
relative viability ([2]; first compound 0.01 µM): 0.884
relative viability ([2]; first compound 0.03162 µM): 0.774
relative viability ([2]; first compound 0.1 µM): 0.332

RERF-LC-KJ
relative viability (Decitabine + Lapatinib; first compound 0.04 µM): 0.804
relative viability (Decitabine + Lapatinib; first compound 0.1265 µM): 0.894
relative viability (Decitabine + Lapatinib; first compound 0.4 µM): 0.704
relative viability (Decitabine + Lapatinib; first compound 1.265 µM): 0.717
relative viability (Decitabine + Lapatinib; first compound 4 µM): 0.656
relative viability ([1]; first compound 0.001 µM): 1.18
relative viability ([1]; first compound 0.003162 µM): 0.973
relative viability ([1]; first compound 0.01 µM): 1.12
relative viability ([1]; first compound 0.03162 µM): 1.03
relative viability ([1]; first compound 0.1 µM): 0.811
relative viability (Cediranib + Trametinib; first compound 0.04 µM): 0.875
relative viability (Cediranib + Trametinib; first compound 0.1265 µM): 0.902
relative viability (Cediranib + Trametinib; first compound 0.4 µM): 0.839
relative viability (Cediranib + Trametinib; first compound 1.265 µM): 0.762
relative viability (Cediranib + Trametinib; first compound 4 µM): 0.985
relative viability ([2]; first compound 0.001 µM): 0.972
relative viability ([2]; first compound 0.003162 µM): 0.932
relative viability ([2]; first compound 0.01 µM): 0.843
relative viability ([2]; first compound 0.03162 µM): 0.891
relative viability ([2]; first compound 0.1 µM): 0.967

SK-LU-1
relative viability (Decitabine + Lapatinib; first compound 0.04 µM): 0.66
relative viability (Decitabine + Lapatinib; first compound 0.1265 µM): 0.604
relative viability (Decitabine + Lapatinib; first compound 0.4 µM): 0.42
relative viability (Decitabine + Lapatinib; first compound 1.265 µM): 0.457
relative viability (Decitabine + Lapatinib; first compound 4 µM): 0.38
relative viability ([1]; first compound 0.001 µM): 0.389
relative viability ([1]; first compound 0.003162 µM): 0.439
relative viability ([1]; first compound 0.01 µM): 0.369
relative viability ([1]; first compound 0.03162 µM): 0.368
relative viability ([1]; first compound 0.1 µM): 0.319
relative viability (Cediranib + Trametinib; first compound 0.04 µM): 0.547
relative viability (Cediranib + Trametinib; first compound 0.1265 µM): 0.377
relative viability (Cediranib + Trametinib; first compound 0.4 µM): 0.445
relative viability (Cediranib + Trametinib; first compound 1.265 µM): 0.381
relative viability (Cediranib + Trametinib; first compound 4 µM): 0.481
relative viability ([2]; first compound 0.001 µM): 1.18
relative viability ([2]; first compound 0.003162 µM): 0.559
relative viability ([2]; first compound 0.01 µM): 1.14
relative viability ([2]; first compound 0.03162 µM): 0.912
relative viability ([2]; first compound 0.1 µM): 0.58

SK-MES-1
relative viability (Decitabine + Lapatinib; first compound 0.04 µM): 0.463
relative viability (Decitabine + Lapatinib; first compound 0.1265 µM): 0.49
relative viability (Decitabine + Lapatinib; first compound 0.4 µM): 0.406
relative viability (Decitabine + Lapatinib; first compound 1.265 µM): 0.383
relative viability (Decitabine + Lapatinib; first compound 4 µM): 0.286
relative viability ([1]; first compound 0.001 µM): 0.341
relative viability ([1]; first compound 0.003162 µM): 0.33
relative viability ([1]; first compound 0.01 µM): 0.323
relative viability ([1]; first compound 0.03162 µM): 0.257
relative viability ([1]; first compound 0.1 µM): 0.186
relative viability (Cediranib + Trametinib; first compound 0.04 µM): 0.606
relative viability (Cediranib + Trametinib; first compound 0.1265 µM): 0.553
relative viability (Cediranib + Trametinib; first compound 0.4 µM): 0.52
relative viability (Cediranib + Trametinib; first compound 1.265 µM): 0.527
relative viability (Cediranib + Trametinib; first compound 4 µM): 0.562
relative viability ([2]; first compound 0.001 µM): 1.14
relative viability ([2]; first compound 0.003162 µM): 1.05
relative viability ([2]; first compound 0.01 µM): 1.01
relative viability ([2]; first compound 0.03162 µM): 0.812
relative viability ([2]; first compound 0.1 µM): 0.552

SW 1573
relative viability (Decitabine + Lapatinib; first compound 0.04 µM): 1.03
relative viability (Decitabine + Lapatinib; first compound 0.1265 µM): 0.993
relative viability (Decitabine + Lapatinib; first compound 0.4 µM): 1.05
relative viability (Decitabine + Lapatinib; first compound 1.265 µM): 0.646
relative viability (Decitabine + Lapatinib; first compound 4 µM): 0.515
relative viability ([1]; first compound 0.001 µM): 0.422
relative viability ([1]; first compound 0.01 µM): 0.392
relative viability ([1]; first compound 0.03162 µM): 0.23
relative viability ([1]; first compound 0.1 µM): 0.106
relative viability (Cediranib + Trametinib; first compound 0.04 µM): 0.667
relative viability (Cediranib + Trametinib; first compound 0.1265 µM): 0.624
relative viability (Cediranib + Trametinib; first compound 0.4 µM): 0.57
relative viability (Cediranib + Trametinib; first compound 1.265 µM): 0.55
relative viability (Cediranib + Trametinib; first compound 4 µM): 0.496
relative viability ([2]; first compound 0.001 µM): 0.902
relative viability ([2]; first compound 0.003162 µM): 0.796
relative viability ([2]; first compound 0.01 µM): 0.704
relative viability ([2]; first compound 0.03162 µM): 0.683
relative viability ([2]; first compound 0.1 µM): 0.35
